Holding throughout (format): cell-based
Test [1] concerns Colon cancer (C26, murine) cells. Kind of test: Tumor cell proliferation assay (ATP-lite), C26. Particulars: Mus musculus, 96 h, inhibition of tumor cell growth by 50%, 4 days incubation, ATP-lite readout. How it is done: (§1) Assay 1: Tumor Cell Proliferation Assay:
(§2) Colon cancer (C26, murine), pancreatic cancer (MiaPaCa-2, human) cells were plated in 96-well white plates (Cat. No. 3917, Corning, Inc.) at 2.5×10^3 cells/well and cultured overnight at 37° C. in 5% CO2 in DMEM containing 10% FCS. Inhibitors were serially diluted in 100% DMSO and subsequently added to cells to reach a final concentration of 0.25% DMSO. Cell plates were incubated for an additional 4 days at 37° C. and 5% CO2 and cell proliferation was quantitated using the ATP-lite cell proliferation kit (Cat. No. 6016943, Perkin Elmer).
(§3) The ATPlite kit quantifies the ATP released from lysed cells by the generation of light caused by the reaction of the released ATP with the Luciferase and D-Luciferin contained in the kit. After the 4th day of incubation, the media is removed from the cell plates and replaced with 100 μL of PBS followed by 50 μL of the lysis solution. The plates are then shaken for 5 minutes on an orbital shaker followed by the addition of 50 μL of substrate solution. The plates are shaken for an additional 5 minutes followed by dark adaptation for 10 minutes and finally read on a Victor^3 V plate reader (1 second/well, Cat. No. 1420-041, Perkin Elmer).
(§4) Columns 2-3 show the concentration of compounds required to inhibit the growth of tumor cells by 50% (IC50 in μM).

For test [2], the system named is pancreatic cancer (MiaPaCa-2, human) cells. Kind of test: Tumor cell proliferation assay (ATP-lite), MiaPaCa-2. As to conditions: MIA PaCa-2, 96 h; inhibition of tumor cell growth by 50%; MiaPaCa-2 human pancreatic cancer cells; 4 days incubation; ATP-lite readout. The procedure:
as §1, §2, §3, §4

The test system of test [3] is Human umbilical vein endothelial cells (HUVEC). The test is described as follows: Endothelial tube formation assay. As to conditions: 50% reduction in total endothelial tube length, HUVEC on Matrigel, overnight culture. The procedure: Assay 2: Endothelial Tube Formation Assay
Human umbilical vein endothelial cells (HUVEC) (Cascade Biologics #C-003-5C) were plated into 96-well black clear-bottom microplates (Cat. No. 3603, Corning, Inc.) containing 50 uL/well of BD Matrigel Basement Membrane Matrix (BD Biosciences #354234) at 7.5×10^3 cells/well. Inhibitors were serially diluted in 100% DMSO and subsequently added to cells to reach a final concentration of 0.5% DMSO and the plates cultured overnight at 37° C., 5% CO2 in (EGM™-2 MV) (Cambrex #CC-3202). […] Cell plates were incubated in the dark at 37° C., 5% CO2 for 10 minutes and then immediately imaged and quantitated on the Discovery—1 automated microscope (Molecular Devices Corp.) to determine the total endothelial tube length. The total endothelial tube length is calculated using the Angiogenesis image algorithm supplied with the MetaMorph software package (Molecular Devices Corp). […] The binary image is then analyzed to remove objects that are not part of the endothelial tube network, such as cell clumps or debris. Finally, the corrected binary image is processed to reduce the tubes to single pixel width from which the total tube length is calculated. […]

SMILES strings stand for the structures.

Broadly, the IC50 is the concentration at which inhibition is half-maximal. For `CC(=NN(C)c1nc(C(F)(F)F)nc2ccccc12)c1ccc(C)cc1` [Compound 2], the IC50 in test [1], in test [2] and in test [3] was under 1 µM throughout.

`CC(=NN(C)c1nc(C)nc2ccccc12)c1ccc(C)cc1` [Compound 7, N-Methyl-N-(2-methyl-quinazolin-4-yl)-N-(1-p-tolyl-ethylidene)-hydrazine]: the IC50 in test [1], in test [2] and in test [3] was under 1 µM in each case.

Take `COc1ccccc1-c1cc(NN=C(C)c2ccc(C)cc2)nc(C)n1` [Compound 29, N-[6-(2-Methoxy-phenyl)-2-methylpyrimidin-4-yl]-N′-[1-p-tolyl-ethylidene]-hydrazine]: the IC50 in test [1] and in test [2] was under 1 µM in each case.

Take `CC(=NNc1cc(-c2ccccc2C#N)nc(C)n1)c1ccc(C)cc1` [Compound 31, 2-(2-Methyl-6-{N′-[1-p-tolyl-ethylidene]-hydrazino}-pyrimidin-4-yl)-benzonitrile]: the IC50 in test [1] and in test [2] was under 1 µM each time.

In the case of `CC(=NNc1cc(-c2ccccc2C)nc(C)n1)c1ccc(C)cc1` [Compound 32, N-[6-(2-methyl-phenyl)-2-methyl-pyrimidin-4-yl]-N′-[1-p-tolyl-ethylidene]-hydrazine], the IC50 in test [1] and in test [2] was under 1 µM in each case.

Consider `CC(=NNc1cc(-c2ccccc2N2CCOCC2)nc(C)n1)c1ccc(C)cc1` [Compound 33, N-[2-Methyl-6-(2-morpholin-4-yl-phenyl)-pyrimidin-4-yl]-N′-[1-p-tolyl-ethylidene]-hydrazine], for which the results for the IC50 in test [1] and in test [2] were 1 to 15 µM and under 1 µM, respectively.

For the compound `CC(=O)Nc1ccccc1-c1cc(NN=C(C)c2ccc(C)cc2)nc(C)n1` [Compound 34, N-[2-(2-Methyl-6-{N′-[1-p-tolyl-ethylidene]-hydrazino}-pyrimidin-4-yl)-phenyl]-acetamide], the half-maximal inhibitory concentration (IC50) in test [1] and in test [2] was under 1 µM each time.

Consider `CC(=NNc1cc(-c2ccccc2CO)nc(C)n1)c1ccc(C)cc1` [Compound 35, [2-(2-Methyl-6-{N′-[1-p-tolyl-ethylidene]-hydrazino}-pyrimidin-4-yl)-phenyl]-methanol], for which the IC50 in test [1] and in test [2] was under 1 µM throughout.

Turning to `CC(=NNc1cc(-c2c(C)noc2C)nc(C)n1)c1ccc(C)cc1` [Compound 36, N-[6-(3,5-Dimethyl-isoxazol-4-yl)-2-methyl-pyrimidin-4-yl]-N′-[1-p-tolyl-ethylidene]-hydrazine], the IC50 in test [1] and in test [2] was under 1 µM in each case.

Turning to `CC(=NNc1cc(-c2ccccc2N)nc(C)n1)c1ccc(C)cc1` [Compound 38, 2-(2-Methyl-6-{N′-[1-p-tolyl-ethylidene]-hydrazino}-pyrimidin-4-yl)-phenylamine], the IC50 in test [1] and in test [2] was under 1 µM each time.

Consider `CC(=NN(C)c1cc(-c2ccccc2)nc(C)n1)c1ccc(C)cc1` [Compound 39, N-Methyl-N-(2-methyl-6-phenyl-pyrimidin-4-yl)-N′-[1-p-tolyl-ethylidene]-hydrazine], for which the IC50 in test [1] and in test [2] was under 1 µM in each case.

Turning to `COc1cccc(OC)c1-c1cc(NN=C(C)c2ccc(C)cc2)nc(C)n1` [Compound 40, N-[6-(2,6-Dimethoxy-phenyl)-2-methyl-pyrimidin-4-yl]-N′-[1-p-tolyl-ethylidene]-hydrazine], the IC50 in test [1] and in test [2] was under 1 µM throughout.

In the case of `CC(=NNc1cc(-c2ccccc2)nc(C)n1)c1ccc(C)cc1` [Compound 41, N-(2-Methyl-6-phenyl-pyrimidin-4-yl)-N′-(1-p-tolyl-ethylidene)-hydrazine], the IC50 in test [1] and in test [2] was under 1 µM in each case.

`CC(=NNc1cc(-c2ccccc2)nc(C)n1)c1ccc(N)cc1` [Compound 42, 4-{1-[(2-Methyl-6-phenyl-pyrimidin-4-yl)-hydrazono]-ethyl}-phenylamine]: the IC50 in test [1] and in test [2] was 1 to 15 µM throughout.

The values are drawn from patent US8288398B2, “Antiproliferative pyrimidyl, fused pyrimidyl and pyrimidyl hydrazones” (Merck Serono SA, priority 2005, dated 2012).
